Patent US20260125359A1, “HETEROARYL COMPOUNDS AS MULTI-TARGET PROTEIN KINASE INHIBITORS” (FUJIAN HAIXI PHARMACEUTICALS CO., LTD., priority 2023, published 2026)

Key:
KDR (VEGFR2) = KDR (VEGFR2) (Homo sapiens, UniProt P35968); test: KDR (VEGFR2) in vitro kinase activity assay (HTRF kinEASE TK); type: biochemical; settings: for inhibition at 0.01 µM: compound 10 nM, read-out: VEGFR2 inhibition rate, 10 nM; for inhibition at 0.1 µM: compound 100 nM, read-out: VEGFR2 inhibition rate, 100 nM
Description: (§1) CSF-1R, PDGFR-α, KDR (VEGFR2) and KIT in vitro Kinase Activity Assay:
(§2) • ENVISION (Perkinelmer, 2104) • White 384-well MicroPlate (Cat #264706, Nunc) • HTRF kinEASE TK kit main reagents (Cat #62TKOPEC, Cisbio) • TK-biotin substrate • Streptavidin-XL665 • TK Antibody-Cryptate • 5× Enzymatic buffer (5×KB) • Staphylococcal enterotoxin B (SEB) • HTRF Detection buffer • CSF-1R (Cat #PV3249, Invitrogen) • PDGFR-α (Cat #PV3811, Invitrogen) • KDR (Cat #PV3660, Invitrogen) • KIT (Cat #08-156, Carna) • ATP 10 mM (Cat #PV3227, Invitrogen) • DTT 1 M (Cat #D5545, Sigma) • MgCl2 1 M (Cat #M8266, Sigma) • MnCl2 1 M (Cat #244589, Sigma)
(§3) Dilute Substrate-TK and ATP to 5× of the reaction concentration using 1× Kinase Buffer.
(§4) Prepare the 5× enzyme working solution using 1× Kinase Buffer.
(§5) Prepare the 4×Sa-XL665 working solution using Detection Buffer.
(§6) Dilute TK-Ab-Cryptate 100 times using Detection Buffer to prepare the working solution.
(§7) After all reagents were prepared according to the methods described above, except for the enzyme, they were equilibrated to room temperature before starting the sample addition. • a) First, 2.5% DMSO solutions were prepared separately using the pre-prepared 1× kinase buffer (DMSO concentrations that were too high could affect the reaction, so the final concentration of DMSO was controlled at 1%). Then, the corresponding 2.5% DMSO solution for the enzyme was used to dilute the test compounds. Compounds were screened with two concentrations of 100 nM and 10 nM. Except for the control wells, 4 μL of the diluted test compound solution was added to the reaction wells, and 4 μL of the pre-prepared 2.5% DMSO solution was added to the control wells. • b) 2 μL of the pre-prepared TK-biotin substrate solution at the corresponding concentration for the kinase was added to all reaction wells. • c) 2 μL of the pre-prepared enzyme solution at the corresponding concentration was added to all reaction wells except the negative control wells. For the negative control wells, 2 μL of 1× kinase buffer corresponding to the enzyme was added to make up the volume. The plate was sealed with sealing film, mixed gently, and incubated at room temperature for 10 min to allow the compounds to fully interact with the enzyme. • d) 2 μL of the ATP solution at the corresponding concentration for the enzyme was added to all reaction wells to initiate the kinase reaction. ATP concentrations and reaction times for enzyme screening are shown in Table 26 • e) Five minutes before the end of the kinase reaction, the detection solution was prepared. The detection buffer from the kit was used to prepare detection solutions for Streptavidin-XL665 and TK antibody europium cryptate (1:100) at the appropriate concentrations for the two enzymes. • f) After the kinase reaction was completed, 5 μL of the diluted Streptavidin-XL665 solution was added to all reaction wells. After mixing, the diluted TK antibody europium cryptate detection solution was immediately added. • g) The plate was sealed and mixed, incubated at room temperature for 1 hour, and the fluorescence signal was detected using the ENVISION (PerkinElmer) instrument (excitation at 320 nm, emission at 665 nm and 615 nm). The inhibition rate for each well was calculated based on the full-activity control wells and background signal wells, and the average value of the replicates was taken.

CSF-1R = CSF-1R (Homo sapiens, UniProt P07333); test: CSF-1R in vitro kinase activity assay (HTRF kinEASE TK); type: biochemical; settings: for inhibition at 0.01 µM: compound 10 nM, read-out: CSF-1R inhibition rate, 10 nM; for inhibition at 0.1 µM: compound 100 nM, read-out: CSF-1R inhibition rate, 100 nM
CSF-1R, sequence (P07333 20-972): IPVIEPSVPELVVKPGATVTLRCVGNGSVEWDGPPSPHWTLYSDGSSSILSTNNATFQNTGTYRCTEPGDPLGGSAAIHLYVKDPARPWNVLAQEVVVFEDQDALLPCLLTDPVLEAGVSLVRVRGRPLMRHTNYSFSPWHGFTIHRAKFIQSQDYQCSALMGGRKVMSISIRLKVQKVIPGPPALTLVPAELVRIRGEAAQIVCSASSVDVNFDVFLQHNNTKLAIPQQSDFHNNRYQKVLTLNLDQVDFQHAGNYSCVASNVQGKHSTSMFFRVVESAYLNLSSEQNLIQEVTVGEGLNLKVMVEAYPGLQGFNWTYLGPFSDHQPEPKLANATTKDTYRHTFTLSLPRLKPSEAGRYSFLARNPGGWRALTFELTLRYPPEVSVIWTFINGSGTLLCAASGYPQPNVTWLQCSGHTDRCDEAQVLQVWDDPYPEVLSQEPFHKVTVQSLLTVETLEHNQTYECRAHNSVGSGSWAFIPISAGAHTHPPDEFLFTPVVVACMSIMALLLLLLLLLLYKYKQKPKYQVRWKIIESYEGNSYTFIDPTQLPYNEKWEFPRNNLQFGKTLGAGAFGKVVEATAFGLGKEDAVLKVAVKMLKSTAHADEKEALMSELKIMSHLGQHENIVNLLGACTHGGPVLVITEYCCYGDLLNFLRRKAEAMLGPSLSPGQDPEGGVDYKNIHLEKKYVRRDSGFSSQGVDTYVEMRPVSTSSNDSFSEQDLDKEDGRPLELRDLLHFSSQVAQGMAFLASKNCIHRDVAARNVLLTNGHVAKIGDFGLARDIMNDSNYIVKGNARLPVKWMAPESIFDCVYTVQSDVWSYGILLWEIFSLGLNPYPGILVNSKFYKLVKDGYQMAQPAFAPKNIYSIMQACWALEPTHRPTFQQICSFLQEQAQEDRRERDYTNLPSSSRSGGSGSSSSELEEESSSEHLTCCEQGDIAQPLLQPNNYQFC
Description: as §1, §2, §3, §4, §5, §6, §7

PDGFR-α = PDGFR-α (Homo sapiens, UniProt P16234); test: PDGFR-α in vitro kinase activity assay (HTRF kinEASE TK); type: biochemical; settings: for inhibition at 0.01 µM: compound 10 nM, read-out: PDGFRα inhibition rate, 10 nM; for inhibition at 0.1 µM: compound 100 nM, read-out: PDGFRα inhibition rate, 100 nM
Description: as §1, §2, §3, §4, §5, §6, §7

KIT = KIT (Homo sapiens, UniProt P10721); test: KIT in vitro kinase activity assay (HTRF kinEASE TK); type: biochemical; settings: for inhibition at 0.01 µM: compound 10 nM, read-out: KIT inhibition rate, 10 nM; for inhibition at 0.1 µM: compound 100 nM, read-out: KIT inhibition rate, 100 nM
KIT, sequence (P10721 26-976): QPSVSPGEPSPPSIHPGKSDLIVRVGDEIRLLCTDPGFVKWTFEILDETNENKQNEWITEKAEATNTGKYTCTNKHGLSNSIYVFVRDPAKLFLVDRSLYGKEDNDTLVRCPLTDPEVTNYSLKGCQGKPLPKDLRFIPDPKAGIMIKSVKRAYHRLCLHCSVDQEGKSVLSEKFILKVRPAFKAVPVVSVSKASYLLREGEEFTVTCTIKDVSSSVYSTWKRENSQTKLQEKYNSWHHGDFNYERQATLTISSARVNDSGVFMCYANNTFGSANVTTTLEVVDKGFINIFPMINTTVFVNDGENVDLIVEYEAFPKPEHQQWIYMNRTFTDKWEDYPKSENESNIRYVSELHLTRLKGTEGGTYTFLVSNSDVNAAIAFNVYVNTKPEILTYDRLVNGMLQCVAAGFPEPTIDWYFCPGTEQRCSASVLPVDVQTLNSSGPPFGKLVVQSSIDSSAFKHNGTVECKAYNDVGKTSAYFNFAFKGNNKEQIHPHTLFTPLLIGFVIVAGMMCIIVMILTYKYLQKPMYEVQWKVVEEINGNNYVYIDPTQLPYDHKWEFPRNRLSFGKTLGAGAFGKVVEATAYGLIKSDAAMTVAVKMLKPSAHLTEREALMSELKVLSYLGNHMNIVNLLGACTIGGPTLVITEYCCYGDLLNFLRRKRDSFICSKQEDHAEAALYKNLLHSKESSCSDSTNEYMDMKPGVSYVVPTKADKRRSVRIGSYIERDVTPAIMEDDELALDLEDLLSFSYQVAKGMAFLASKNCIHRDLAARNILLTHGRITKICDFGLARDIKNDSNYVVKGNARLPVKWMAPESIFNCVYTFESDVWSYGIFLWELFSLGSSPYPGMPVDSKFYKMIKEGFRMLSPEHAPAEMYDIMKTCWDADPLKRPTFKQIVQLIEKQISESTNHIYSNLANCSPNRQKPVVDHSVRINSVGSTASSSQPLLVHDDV
Description: as §1, §2, §3, §4, §5, §6, §7

DDR1 = DDR1 (Homo sapiens, UniProt Q08345); test: DDR1 in vitro kinase activity assay (LanthaScreen Eu-anti-GST antibody / Kinase Tracer 178); type: binding; settings: for inhibition at 0.01 µM: compound 10 nM, read-out: DDR1 inhibition rate, 10 nM; for inhibition at 0.1 µM: compound 100 nM, read-out: DDR1 inhibition rate, 100 nM
DDR1, sequence (Q08345 19-913): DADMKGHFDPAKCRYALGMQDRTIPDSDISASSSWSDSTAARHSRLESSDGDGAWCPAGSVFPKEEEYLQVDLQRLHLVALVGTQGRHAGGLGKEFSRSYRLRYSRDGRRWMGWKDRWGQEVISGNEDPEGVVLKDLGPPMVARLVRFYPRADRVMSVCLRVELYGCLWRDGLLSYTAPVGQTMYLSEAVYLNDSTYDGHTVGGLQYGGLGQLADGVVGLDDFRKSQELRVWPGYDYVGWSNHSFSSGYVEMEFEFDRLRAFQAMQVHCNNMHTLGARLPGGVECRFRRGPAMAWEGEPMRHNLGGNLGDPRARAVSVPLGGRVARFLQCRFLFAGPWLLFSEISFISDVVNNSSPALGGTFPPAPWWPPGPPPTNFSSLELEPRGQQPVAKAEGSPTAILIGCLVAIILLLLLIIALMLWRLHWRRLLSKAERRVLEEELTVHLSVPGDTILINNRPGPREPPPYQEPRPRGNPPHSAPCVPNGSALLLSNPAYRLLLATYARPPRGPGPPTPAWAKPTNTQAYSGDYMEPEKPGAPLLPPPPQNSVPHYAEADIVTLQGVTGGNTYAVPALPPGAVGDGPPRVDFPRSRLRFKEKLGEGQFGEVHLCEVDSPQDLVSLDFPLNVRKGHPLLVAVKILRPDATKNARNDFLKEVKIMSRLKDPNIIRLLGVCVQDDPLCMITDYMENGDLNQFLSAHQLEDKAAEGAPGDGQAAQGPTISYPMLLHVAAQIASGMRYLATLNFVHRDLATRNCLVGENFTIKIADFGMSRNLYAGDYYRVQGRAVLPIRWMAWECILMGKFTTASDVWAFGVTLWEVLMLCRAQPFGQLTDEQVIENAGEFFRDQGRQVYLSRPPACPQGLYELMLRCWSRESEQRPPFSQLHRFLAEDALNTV
Protocol: DDR1 in vitro Kinase Activity Assay:
• ENVISION (Perkinelmer, 2104) • White 384-well MicroPlate (Cat #264706, Nunc) • DDR1 (Cat #PV6047, Invitrogen) • 5× Kinase Buffer A (Cat #PV3189, Invitrogen) • Kinase Tracer 178 (Cat #PV5593, Invitrogen) • LanthaScreen® Eu-anti-GST Antibody (Cat #PV5594, Invitrogen)
The compounds to be tested were tested at two concentrations of 100 nM and 10 nM.
Kinase/Antibody Mixtures Preparation: Dilute Kinase/Antibody Mixtures with 1× Kinase Buffer to form 3× working solutions with final concentrations of 5 nM kinase and 2 nM Eu-Anti-GST Antibody, respectively.
Kinase Tracer 178 Preparation: Dilute Kinase Tracer 178 with 1× Kinase Buffer to make a 3× working solution with a final concentration of 10 nM.
After all reagents were prepared according to the methods described above, except for the enzyme, they were equilibrated to room temperature before starting the sample addition. • a) First, 3% DMSO solutions were prepared separately using the pre-prepared 1× kinase buffer (DMSO concentrations that were too high could affect the reaction, so the final concentration of DMSO was controlled at 1%). Then, the corresponding 3% DMSO solution for the enzyme was used to dilute the test compounds. Compounds were screened with two concentrations of 100 nM and 10 nM. Except for the control wells, 5 μL of the diluted test compound solution was added to the reaction wells, and 5 μL of the pre-prepared 3% DMSO solution was added to the control wells. • b) 5 μL of the pre-prepared Kinase/Antibody mixtures was added to all reaction wells except the negative control wells. For the negative control wells, 5 μL of 1× kinase buffer corresponding to the enzyme was added to make up the volume. • c) 5 μL of the pre-prepared Kinase Tracer 178 solution was added to all reaction wells. • d) The plate was sealed and mixed, incubated at room temperature for 1 hour, and the fluorescence signal was detected using the ENVISION (PerkinElmer) instrument (excitation at 340 nm, emission at 665 nm and 615 nm). The inhibition rate for each well was calculated based on the full-activity control wells and background signal wells, and the average value of the replicates was taken.

KDR (VEGFR2), sequence (P35968 20-1356): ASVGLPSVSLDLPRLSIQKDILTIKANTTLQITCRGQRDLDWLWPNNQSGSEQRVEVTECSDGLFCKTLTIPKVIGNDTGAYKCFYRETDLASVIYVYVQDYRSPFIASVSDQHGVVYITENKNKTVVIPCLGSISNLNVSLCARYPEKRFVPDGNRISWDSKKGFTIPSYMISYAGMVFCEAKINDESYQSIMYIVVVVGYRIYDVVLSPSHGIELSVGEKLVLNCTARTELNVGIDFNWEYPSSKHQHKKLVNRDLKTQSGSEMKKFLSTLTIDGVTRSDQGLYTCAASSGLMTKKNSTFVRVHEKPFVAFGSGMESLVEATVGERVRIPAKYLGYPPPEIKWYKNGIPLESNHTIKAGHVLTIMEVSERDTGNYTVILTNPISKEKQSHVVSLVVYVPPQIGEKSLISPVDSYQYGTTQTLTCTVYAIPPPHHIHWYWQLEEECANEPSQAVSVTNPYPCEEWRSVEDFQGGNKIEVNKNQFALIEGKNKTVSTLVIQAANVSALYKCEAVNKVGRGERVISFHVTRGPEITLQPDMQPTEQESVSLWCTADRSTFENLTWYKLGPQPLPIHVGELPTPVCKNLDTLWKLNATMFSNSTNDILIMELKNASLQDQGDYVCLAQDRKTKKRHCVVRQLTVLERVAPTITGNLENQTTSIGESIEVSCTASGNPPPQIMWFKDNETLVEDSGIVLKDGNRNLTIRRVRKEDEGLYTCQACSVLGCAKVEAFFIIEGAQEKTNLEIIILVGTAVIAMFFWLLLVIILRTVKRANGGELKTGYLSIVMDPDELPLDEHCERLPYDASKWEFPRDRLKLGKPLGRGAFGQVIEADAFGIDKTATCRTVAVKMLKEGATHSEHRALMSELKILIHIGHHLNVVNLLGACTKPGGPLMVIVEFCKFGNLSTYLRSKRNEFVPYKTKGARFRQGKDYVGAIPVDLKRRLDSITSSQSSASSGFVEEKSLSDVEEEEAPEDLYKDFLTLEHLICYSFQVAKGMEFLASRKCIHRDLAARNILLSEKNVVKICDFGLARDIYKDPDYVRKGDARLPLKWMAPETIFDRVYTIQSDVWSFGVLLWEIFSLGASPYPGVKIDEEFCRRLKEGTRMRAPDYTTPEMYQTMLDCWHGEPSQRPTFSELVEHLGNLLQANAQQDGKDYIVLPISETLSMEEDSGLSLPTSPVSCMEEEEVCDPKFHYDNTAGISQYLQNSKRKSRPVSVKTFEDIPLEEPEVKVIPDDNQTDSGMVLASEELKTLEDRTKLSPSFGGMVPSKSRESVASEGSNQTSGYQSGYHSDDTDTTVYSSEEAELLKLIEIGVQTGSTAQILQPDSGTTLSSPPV

| inhibition at 0.01 µM (KDR (VEGFR2)) [%] | inhibition at 0.1 µM (KDR (VEGFR2)) [%] | inhibition at 0.01 µM (CSF-1R) [%] | inhibition at 0.1 µM (CSF-1R) [%] | inhibition at 0.01 µM (PDGFR-α) [%] | inhibition at 0.1 µM (PDGFR-α) [%] | inhibition at 0.01 µM (KIT) [%] | inhibition at 0.1 µM (KIT) [%] | inhibition at 0.01 µM (DDR1) [%] | inhibition at 0.1 µM (DDR1) [%] | Structure (SMILES) |
| --- | --- | --- | --- | --- | --- | --- | --- | --- | --- | --- |
| 93.6 | 102 | 71.9 | 97.4 | 22.9 | 97.1 | 11.2 | 80.2 | 84 | 105 | Cn1cc(-c2cncc(O[C@H]3CCc4c(C(=O)Nc5cccc(C6CC6)c5)cccc43)c2)cn1 [Compound 19b] |
| 88.9 | 100 | 75.2 | 95.8 | 94.7 | 98.9 | 89.6 | 100 | 92.1 | 101 | Cn1cc(-c2cncc(N[C@H]3CCc4c(C(=O)Nc5nn(C)c6ccccc56)cccc43)n2)cn1 [Compound 27g, (S)—N-(1-methyl-1H-indazol-3-yl)-1-((6-(1-methyl-1H-pyrazol-4-yl)pyrazin-2-yl)amino)-2,3-dihydro-1H-indene-4-carboxamide] |
| 83.1 | 99.6 | 74.6 | 95.3 | 72.7 | 98.7 | 61.9 | 97.3 | 93.2 | 104 | Cn1cc(-c2cncc(N[C@H]3CCc4c(C(=O)Nc5cncc(Cl)c5)cccc43)c2)cn1 [Compound 14aa, (S)—N-(5-chloropyridin-3-yl)-1-((5-(1-methyl-1H-pyrazol-4-yl)pyridin-3-yl)amino)-2,3-dihydro-1H-indene-4-carboxamide] |
| 68.3 | 100 | 70.2 | 101 | 90 | 100 | 59.1 | 99.7 | 72.5 | 103 | Cn1ncc2ncc(N[C@H]3CCc4c(C(=O)Nc5cccc(C6CC6)c5)cccc43)cc21 [Compound 73, (S)—N-(3-cyclopropylphenyl)-1-((1-methyl-1H-pyrazolo[4,3-b]pyridin-6-yl)amino)-2,3-dihydro-1H-indene-4-carboxamide] |
| 43 | 91.9 | 73.7 | 96.5 | 19 | 51.2 | 22 | 47.8 | 14.7 | 83.9 | CN(c1cnc2cn(C)nc2c1)[C@H]1CCc2c(C(=O)Nc3cncc(Cl)c3)cccc21 [Compound 80k] |
| 14.7 | 66.2 | 63.5 | 96.7 | 72.8 | 98.8 | 30.5 | 80.7 | 75.8 | 100 | CN1CCc2ccc(NC(=O)c3cccc4c3CC[C@@H]4Nc3cncc(-c4cnn(C)c4)c3)cc2C1 [Compound 14ap] |
| 93.2 | 97 | 15.3 | 94.1 | 32 | 85.7 | 5.6 | 31.4 | 21.2 | 69.7 | Cc1cccc(NC(=O)c2cccc3c2CC[C@@H]3Oc2cnc3cn(C)nc3c2)n1 [Compound 76bd] |
| 95.3 | 99.5 | 79.9 | 93.5 | 78.7 | 99.1 | 73 | 97.5 | 90.2 | 95.1 | Cc1cccc(NC(=O)c2cccc3c2CC[C@@H]3Nc2cncc(-c3cnn(C)c3)c2)c1 [Compound 13, (S)-1-((5-(1-methyl-1H-pyrazol-4-yl)pyridin-3-yl)amino)-N-(m-tolyl)-2,3-dihydro-1H-indene-4-carboxamide] |
| 22.7 | 88.9 | 27.5 | 95.4 | 14.5 | 67.2 | 12.1 | 53.9 | 23.1 | 53.5 | CN1CCc2nc(NC(=O)c3cccc4c3CC[C@@H]4Oc3cncc(-c4cnn(C)c4)c3)sc2C1 [Compound 19f] |
| 18.6 | 63.9 | 26.9 | 100 | 55.5 | 100 | 7.5 | 66.4 | 20.2 | 78.2 | Cn1cc(-c2cncc(N[C@H]3CCc4c(Nc5cc(C(C)(C)C)on5)cccc43)c2)cn1 [Compound 41, (S)—N^4-(5-(tert-butyl)isoxazol-3-yl)-N^1-(5-(1-methyl-1H-pyrazol-4-yl)pyridin-3-yl)-2,3-dihydro-1H-indene-1,4-diamine] |
| 99.1 | 95.6 | 105 | 103 | 97.6 | 97.2 | 91.2 | 95.9 | 98 | 98.5 | Cn1cc2ncc(O[C@H]3CCc4c(C(=O)Nc5nn(C)c6ccccc56)cccc43)cc2n1 [Compound 76al] |
